Assay results: patent publication US7393640B2, “Terminal-phosphate-labeled nucleotides with new linkers” (GE Healthcare Bio-Sciences Corp., priority 2003, dated 2008)
Where two headings read alike, the source gives them in different places.

Columns and labels:
various polymerases = experiment: Effect of MnCl2 on incorporation of terminal-phosphate labeled nucleotide on oligo dT/poly dA; format: biochemical; conditions: 10 uM nucleotide, 60° C.
Experimental: Oligo dT (35mer) was annealed with poly dA by mixing equal volumes of each at 20 uM conc, and incubating at 80° C. for 4 min and instant cooling on ice. 1 ul of this solution was mixed into a 20 ul reaction containing 25 mM Hepes, pH 8.0, 0.01% Tween-20, 10 uM dT4P-DDAO, 0.005 u/ul BAP, a polymerase at concentrations shown in FIG. 7 and various concentrations of MnCl2—and MgCl2.

[1] = test system: cloned DNA polymerase I genetically engineered to eliminate 3′-5′ exonuclease activity, 5′-3′ exonuclease activity and discrimination against …; experiment: Template-directed incorporation of gamma phosphate-labeled ddNTP with shrimp alkaline phosphatase, fluorescence read-out; format: biochemical; conditions: 2 μM nucleotide, 5 mM MgCl2, 0.25 mM MnCl2, shrimp alkaline phosphatase
Experimental: Reactions were assembled at room temperature (23° C.) using the dideoxynucleotide of Example (1).
Referring now to FIG. 1, for template 1 (SEQ ID NO: 2) in the present example, DNA polymerase would be expected to extend the primer with labeled ddGTP. Similarly, for template 2 (SEQ ID NO: 3) in FIG. 1, DNA polymerase would be expected to extend the primer with ddATP, but not with labeled ddGTP.
(§1) Reaction conditions: A 70 μl reaction containing 25 mM Tris, pH 8.0, 5% glycerol 5 mM MgCl2, 0.5 mM beta-mercaptoethanol, 0.01% tween-20, 0.25 units shrimp alkaline phosphatase, 100 nM primer annealed to template (the next template nucleotide is either dCMP or dTMP, as indicated), and 2 μM ddGTP-CF3-Coumarin was assembled in a quartz fluorescence ultra-microcuvet in a LS-55 Luminescence Spectrometer (Perkin Elmer), operated in time drive mode. Excitation and emission wavelengths are 390 nm and 500 nm respectively. Slit widths were 5 nm for excitation slits, 15 nm for emission slits. The reaction was initiated by the addition of 0.35 μl (11 units) of a cloned DNA polymerase I genetically engineered to eliminate 3′-5′ exonuclease activity, 5′-3′ exonuclease activity and discrimination against dideoxynucleotides and 0.25 mM MnCl2.
Reactions were assembled at room temperature (23° C.) using the dideoxynucleotide of Example (2).
Referring now to FIG. 2, for template 2 (SEQ ID NO: 3) in the present example, DNA polymerase would be expected to extend the primer with labeled ddATP. Similarly, for template 1 (SEQ ID NO: 2) in FIG. 2, DNA polymerase would be expected to extend the primer with ddGTP, but not with labeled ddATP.
as §1, with “template,” for “template (the next template nucleotide is either dCMP or dTMP, as indicated),”, “ddATP-CN-Coumarin” for “ddGTP-CF3-Coumarin”, “410” for “390”, “450” for “500”

Phi 29 exo-polymerase = conditions: 0.7 mM MnCl2 only, 25 uM nucleotide, template SEQ ID NO: 4 (FIG. 6)
Experimental: Using the same primer as in example 9 and template (SEQ ID NO: 4), incorporation of dCTP-DAH-ROX at various times after the reaction was initiated, was investigated. Assay conditions were as follows: Total reaction volume: 30 ul containing 100 nM primer/template, 100 nM Phi 29 exo-polymerase, 50 mM Tris pH 7.5, 75 mM KCl, 0.7 mM MnCl2, 0.1 mM DTT, 0.3 mg/ml BSA. Reaction was initiated by addition of ROX-dCTP to a conc. of 25 uM.

[2] = test system: Thermo Sequenase I DNA polymerase; experiment: Relative incorporation of phosphate labeled versus base labeled nucleotides in magnesium or manganese buffer; format: biochemical; conditions: 5 mM MnCl2 vs 5 mM MgCl2, 1 μM nucleotide, 50 degrees C., 10 minutes
Experimental: Reactions (10 μl, 50 degrees C., 10 minutes) contained 1× reaction buffer (25 mM HEPES 8.5, 0.01% tween-20), 3 μg activated DNA (Chromosomal DNA), 5 mM either MnCl2 (circles) or MgCl2 (squares), 1 μM either FAM-TAM-11-ddTTP (dashed lines) or ddT4P-DDAO (solid lines), with a serial 4 fold dilution of Thermo Sequenase I™ DNA polymerase from 10 units per reaction down to 0.01 units per reaction. Results (FIG. 3) were plotted out both on a linear scale and logarithmic scale to show both linearity with enzyme and relative incorporation efficiency.

[3] = Primer: Template 1 (SEQ ID NO: 2), next template nucleotide dC
[4] = Primer: Template 2 (SEQ ID NO: 3), next template nucleotide dT

Phi 29 exo-polymerase, sequence (P03680 190-575 limits assumed): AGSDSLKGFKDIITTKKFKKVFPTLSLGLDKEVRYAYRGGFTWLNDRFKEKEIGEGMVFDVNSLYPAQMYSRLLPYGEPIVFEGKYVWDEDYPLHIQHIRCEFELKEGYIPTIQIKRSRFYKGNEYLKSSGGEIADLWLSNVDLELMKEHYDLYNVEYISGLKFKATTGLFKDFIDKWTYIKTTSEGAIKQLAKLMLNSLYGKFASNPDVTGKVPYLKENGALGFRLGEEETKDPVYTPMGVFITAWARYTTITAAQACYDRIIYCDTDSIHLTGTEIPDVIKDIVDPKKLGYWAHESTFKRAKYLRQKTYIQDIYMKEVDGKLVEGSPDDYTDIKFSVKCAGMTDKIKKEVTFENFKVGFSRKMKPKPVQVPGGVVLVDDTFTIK

Cc1cn([C@H]2C[C@H](O)[C@@H](COP(=O)(O)OP(=O)(O)OP(=O)(O)OP(=O)(O)Oc3ccc4c(c3)C(C)(C)C3=C(Cl)C(=O)C(Cl)=CC3=N4)O2)c(=O)[nH]c1=O [dT4P-DDAO, 2′-Deoxythymidine-5′-(δ-7-(9H-(1,3-dichloro-9,9-dimethylacridin-2-one)))tetraphosphate]
rate of incorporation in the absence of MnCl2 (various polymerases; 15 or 30 minutes (FIG. 7)): extremely slow
effect of MnCl2, alone or in the presence of MgCl2, on the rate of incorporation (various polymerases; 15 or 30 minutes, all the polymerases tested (FIG. 7)): major positive impact on the rate of incorporation

Nc1nc2c(ncn2[C@H]2CC[C@@H](COP(=O)(O)OP(=O)(O)OP(=O)(O)Oc3ccc4c(C(F)(F)F)cc(=O)oc4c3)O2)c(=O)[nH]1 [gamma labeled ddGTP, γ-(4-trifluoromethylcoumarinyl)dideoxyguanosine-5′-triphosphate]
dye emission [1, 3]: dye emission was detected
dye emission [1, 4]: No detectable dye emission

ROX-amidoheptyl-gamma-amido-deoxycytidine-triphosphate [dCTP-DAH-ROX]
misincorporation (Phi 29 exo-polymerase): no misincorporation takes place
misincorporation (Phi 29 exo-polymerase; listed as dCTP-γ-ROX): No misincorporation was observed

Cc1cn([C@H]2CC[C@@H](COP(=O)(O)OP(=O)(O)OP(=O)(O)OP(=O)(O)Oc3ccc4c(c3)C(C)(C)C3=C(Cl)C(=O)C(Cl)=CC3=N4)O2)c(=O)[nH]c1=O [ddT4P-DDAO, δ-9H(1,3-dichloro-9,9-dimethylacridin-2-one-7-yl)-dideoxythymidine-5′-tetraphosphate]
increase in incorporation efficiency in the manganese buffer relative to the magnesium buffer [2]: 28 fold

N#Cc1cc2ccc(OP(=O)(O)OP(=O)(O)OP(=O)(O)OC[C@@H]3CC[C@H](n4cnc5c(N)ncnc54)O3)cc2oc1=O [gamma labeled ddATP, γ-(3-cyanocoumarinyl)dideoxyadenosine-5′-triphosphate]
dye emission [1, 3]: No detectable dye emission
dye emission [1, 4]: dye emission was detected
